Reference: patent US8962854B2, “Luminescent substrate for luciferase” (The University of Electro-Communications, priority 2011, dated 2015)

What was measured:
[1] = target: firefly luciferase (Photinus pyralis, UniProt P08659); assay: Bioluminescent emission spectrum measurement; assay type: biochemical; settings: ATP-Mg
Experimental: In a 200 μL polystyrene tube, potassium phosphate buffer solution (0.5 M, pH 8.0, 20 μl), substrate solution (2.5 mM, 20 μl), enzyme solution (20 μl), to and ATP-Mg solution (10 mM, 40 μl) were mixed, and emission spectrum measurement was performed. An enzyme solution with a concentration of 17 μM was used. Enzymes with a concentration of 1.7 μM for the firefly luciferin and of 170 μM for the phenol-type luciferin, however, were used. The exposure time for emission spectrum measurement was 60 seconds. For the firefly luciferin, however, the time was five seconds.

[2] = University of Tokyo luciferin derivative; cited from earlier work
[3] = reaction with firefly luciferase, substrate solution 2.5 mM, enzyme solution 17 μM, pH 8.0, exposure 60 seconds

firefly luciferase, sequence (P08659 whole entry): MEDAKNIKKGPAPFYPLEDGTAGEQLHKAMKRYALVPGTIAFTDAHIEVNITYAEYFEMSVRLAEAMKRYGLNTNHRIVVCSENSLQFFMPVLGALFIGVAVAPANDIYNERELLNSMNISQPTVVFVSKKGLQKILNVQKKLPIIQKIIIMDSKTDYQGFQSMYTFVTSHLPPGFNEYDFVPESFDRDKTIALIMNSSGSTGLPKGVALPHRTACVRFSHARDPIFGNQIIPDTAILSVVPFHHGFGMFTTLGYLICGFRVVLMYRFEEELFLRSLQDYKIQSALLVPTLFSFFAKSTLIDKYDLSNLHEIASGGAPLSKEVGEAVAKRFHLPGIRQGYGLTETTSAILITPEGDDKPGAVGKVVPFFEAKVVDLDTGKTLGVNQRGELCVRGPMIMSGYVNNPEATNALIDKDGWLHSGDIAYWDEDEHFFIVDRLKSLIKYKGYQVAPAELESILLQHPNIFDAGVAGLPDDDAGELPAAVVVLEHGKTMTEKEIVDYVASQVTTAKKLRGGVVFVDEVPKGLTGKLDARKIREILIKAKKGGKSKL

SMILES	emission wavelength [1, 3]	further results
C=CCc1c(O)ccc2nc(C3=N[C@@H](C(=O)O)CS3)sc12 [7-allyl-firefly luciferin 35, 7-allyl-firefly luciferin]	605 nm	–
Nc1ccc2nc(C3=N[C@@H](C(=O)O)CS3)sc2c1 [Aminoluciferin]	–	emission wavelength [2]: approximately 610 nm
O=C(O)C1CSC(c2nc3ccc(O)cc3s2)=N1 (stereo not drawn) [Firefly luciferin]	–	emission wavelength ([1]; firefly luciferin: enzyme 1.7 μM, exposure five seconds, pH 8.0): 565 nm
C=CCc1c(O)ccc2cc(/C=C/C3=NC(C(=O)O)CS3)ccc12 (stereo not drawn) [compound 21]	approximately 690 nm	emission wavelength ([1]; reaction with firefly luciferase, substrate solution 2.5 mM, enzyme solution 17 μM, pH 8.0, exposure 60 seconds, listed as FIG. 2): 690 nm
O=C(O)[C@H]1CSC(/C=C/c2ccc3cc(O)ccc3c2)=N1 [compound 39]	660 nm	–
